# Measurements: ChEMBL document CHEMBL1201862, “PubChem BioAssay data set” (2004)
# Active and inactive are the calls of the source.
# Key:
# Assay type in all cases: functional
# Insulin-degrading enzyme = target: T1, Insulin-degrading enzyme (Homo sapiens, UniProt P14735); test: Dose Response: Fluorescence polarization-based cell-based high throughput dose response assay for inhibitors of insulin-degrading enzyme (IDE). [Related pubchem assays: 434962 (Primary screen (IDE inhibitors in singlicate)), 449730 (Counterscreen (Cytotoxicity in triplicate)), 435028 (Confirmation (IDE inhibitors in triplicate)), 434984 (Summary …
# T1 sequence (P14735 whole entry): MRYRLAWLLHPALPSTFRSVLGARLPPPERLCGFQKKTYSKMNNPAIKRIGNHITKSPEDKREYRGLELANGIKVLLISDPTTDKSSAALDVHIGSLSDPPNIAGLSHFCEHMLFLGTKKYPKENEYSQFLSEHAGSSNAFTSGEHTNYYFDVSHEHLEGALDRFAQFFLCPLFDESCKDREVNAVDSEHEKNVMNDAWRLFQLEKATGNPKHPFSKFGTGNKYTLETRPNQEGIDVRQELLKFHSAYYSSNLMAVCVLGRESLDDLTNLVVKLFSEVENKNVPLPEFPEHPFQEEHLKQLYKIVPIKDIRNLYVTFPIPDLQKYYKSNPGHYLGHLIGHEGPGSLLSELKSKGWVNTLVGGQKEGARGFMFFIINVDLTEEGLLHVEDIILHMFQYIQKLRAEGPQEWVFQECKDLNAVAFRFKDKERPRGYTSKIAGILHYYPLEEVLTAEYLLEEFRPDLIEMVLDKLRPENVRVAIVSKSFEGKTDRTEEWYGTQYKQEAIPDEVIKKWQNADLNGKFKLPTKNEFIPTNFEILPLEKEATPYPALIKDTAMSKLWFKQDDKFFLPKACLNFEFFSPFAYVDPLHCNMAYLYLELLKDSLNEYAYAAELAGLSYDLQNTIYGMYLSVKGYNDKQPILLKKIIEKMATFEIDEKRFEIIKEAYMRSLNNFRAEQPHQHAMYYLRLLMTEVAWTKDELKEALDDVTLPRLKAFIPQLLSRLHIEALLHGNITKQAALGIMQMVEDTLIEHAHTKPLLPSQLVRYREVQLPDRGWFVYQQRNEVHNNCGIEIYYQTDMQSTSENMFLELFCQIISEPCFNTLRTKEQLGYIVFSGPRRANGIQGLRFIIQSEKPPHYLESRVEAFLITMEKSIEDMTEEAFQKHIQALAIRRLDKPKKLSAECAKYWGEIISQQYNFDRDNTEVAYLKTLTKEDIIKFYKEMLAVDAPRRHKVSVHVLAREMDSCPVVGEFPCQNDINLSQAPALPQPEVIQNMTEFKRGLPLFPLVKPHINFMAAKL
# [1] = Counterscreen for IDE inhibitors: Luminescence-based cell-based high throughput dose response assay to identify compounds that are cytotoxic to HEK cells. [Related pubchem assays: 434962 (Primary screen (IDE inhibitors in singlicate)), 449730 (Counterscreen (Cytotoxicity in triplicate)), 435028 (Confirmation (IDE inhibitors in triplicate)) …; settings: HEK293
# SUMO-activating enzyme = SUMO-activating enzyme (Homo sapiens, UniProt Q9UBT2); test: blockers of UBC9-mediated SUMO conjugation – biochemical, AlphaScreen, SUMOylation inhibitor project, confirmation (AID 2018)
# SUMO-activating enzyme, sequence (Q9UBE0 whole entry): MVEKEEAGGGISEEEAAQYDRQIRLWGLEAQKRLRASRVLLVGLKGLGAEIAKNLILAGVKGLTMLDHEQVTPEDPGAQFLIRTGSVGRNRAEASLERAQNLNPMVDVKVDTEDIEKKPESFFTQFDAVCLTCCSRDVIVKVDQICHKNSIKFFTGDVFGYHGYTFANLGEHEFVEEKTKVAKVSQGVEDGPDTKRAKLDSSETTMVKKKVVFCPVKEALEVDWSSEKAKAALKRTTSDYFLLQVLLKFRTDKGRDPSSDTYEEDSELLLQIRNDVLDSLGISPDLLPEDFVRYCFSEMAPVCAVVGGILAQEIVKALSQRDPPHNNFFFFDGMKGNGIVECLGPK
# SUMO-activating enzyme, sequence (Q9UBT2 whole entry): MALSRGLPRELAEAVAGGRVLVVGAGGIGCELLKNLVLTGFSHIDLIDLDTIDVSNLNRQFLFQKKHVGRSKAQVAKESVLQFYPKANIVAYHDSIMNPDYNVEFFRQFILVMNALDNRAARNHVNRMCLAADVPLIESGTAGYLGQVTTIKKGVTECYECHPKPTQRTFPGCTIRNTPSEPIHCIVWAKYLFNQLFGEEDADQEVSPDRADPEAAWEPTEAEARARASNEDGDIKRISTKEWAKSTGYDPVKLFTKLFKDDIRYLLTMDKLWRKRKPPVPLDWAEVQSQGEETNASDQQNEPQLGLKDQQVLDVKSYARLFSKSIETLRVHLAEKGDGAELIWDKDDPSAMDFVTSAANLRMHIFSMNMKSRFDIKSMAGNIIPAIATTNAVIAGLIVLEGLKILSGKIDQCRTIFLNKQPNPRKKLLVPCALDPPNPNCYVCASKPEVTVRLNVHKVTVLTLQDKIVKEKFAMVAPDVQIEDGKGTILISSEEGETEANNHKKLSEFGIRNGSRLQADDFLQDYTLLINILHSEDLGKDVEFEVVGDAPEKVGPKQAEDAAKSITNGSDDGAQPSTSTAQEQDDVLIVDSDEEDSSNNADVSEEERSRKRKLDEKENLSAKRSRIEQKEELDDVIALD
# [2] = target: T2, Short transient receptor potential channel 4 (Mus musculus, UniProt Q9QUQ5); test: calcium entry via TRPC4 opening agents – cell-based, HEK293 TRPC4/mu-opioid, Fluo-4 calcium, dose response (AID 434937)
# T2 sequence (Q9QUQ5 whole entry): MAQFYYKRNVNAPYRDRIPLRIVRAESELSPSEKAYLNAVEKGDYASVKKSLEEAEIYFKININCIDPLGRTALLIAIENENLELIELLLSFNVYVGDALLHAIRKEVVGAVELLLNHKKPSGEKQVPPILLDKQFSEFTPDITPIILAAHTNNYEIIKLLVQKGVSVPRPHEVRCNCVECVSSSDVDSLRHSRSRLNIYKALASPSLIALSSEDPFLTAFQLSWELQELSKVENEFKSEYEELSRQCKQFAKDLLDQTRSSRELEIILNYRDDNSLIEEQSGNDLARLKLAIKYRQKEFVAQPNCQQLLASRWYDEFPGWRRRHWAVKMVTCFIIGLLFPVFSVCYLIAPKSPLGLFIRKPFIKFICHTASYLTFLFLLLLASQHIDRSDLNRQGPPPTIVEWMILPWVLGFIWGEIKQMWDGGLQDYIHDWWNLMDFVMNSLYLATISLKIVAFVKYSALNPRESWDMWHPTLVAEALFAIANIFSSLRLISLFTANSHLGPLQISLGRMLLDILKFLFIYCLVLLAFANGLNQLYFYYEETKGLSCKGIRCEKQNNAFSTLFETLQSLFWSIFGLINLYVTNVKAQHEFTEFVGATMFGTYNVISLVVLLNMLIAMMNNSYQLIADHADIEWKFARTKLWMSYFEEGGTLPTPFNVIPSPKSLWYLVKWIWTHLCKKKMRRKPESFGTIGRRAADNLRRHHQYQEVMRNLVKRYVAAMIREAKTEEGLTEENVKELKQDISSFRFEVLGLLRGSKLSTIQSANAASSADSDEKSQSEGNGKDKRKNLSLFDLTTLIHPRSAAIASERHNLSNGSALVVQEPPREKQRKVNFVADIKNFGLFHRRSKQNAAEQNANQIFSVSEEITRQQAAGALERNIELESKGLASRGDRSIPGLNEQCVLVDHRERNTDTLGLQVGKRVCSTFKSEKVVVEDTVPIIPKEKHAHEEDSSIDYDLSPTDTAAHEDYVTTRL
# [3] = MIN6 cell viability loss – mouse insulinoma, cytotoxicity control, dose response (AID 2122);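 note: confirmatory high-throughput counterscreen run to flag cytotoxic compounds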
# [4] = decrease of insulin promoter-GFP reporter – imaging, high-content screening, mouse beta cells (AID 1628); settings: MIN6
Compound,IC50 (Insulin-degrading enzyme),IC50 [1],IC50 (SUMO-activating enzyme),also measured
COc1cc(/C=C2\SC(=S)N(NC(C)=O)C2=O)ccc1OC(=O)c1ccco1,5.78 µM (active),> 55.7 µM (not active),,
N#C/C(=C(/O)c1ccc(S(=O)(=O)N(CCCl)CCCl)cc1)c1nc2ccccc2[nH]1,,,73.8 µM (active),
CNCC(=O)N1CCN(c2ncc(C(F)(F)F)cc2Cl)CC1,,,,EC50 [2]: 0.105 µM (active)
CCCC(=O)Nc1ccc2oc(-c3cncc(Br)c3)nc2c1,,,90.5 µM (active),
O=C(O)CC12CC3CC(C1)CC(n1ncc(NCc4ccccc4Cl)c(Cl)c1=O)(C3)C2,9.59 µM (active),> 55.7 µM (not active),,
CC(C)C(=O)Nc1cccc(C(=O)N2CCCCC2C)c1 (centres undefined),,,,IC50 [3]: 1.99 µM (active); IC50 [4]: 2.43 µM (active)
